Results as given in US11365177B2, “Chemical uncouplers of respiration and methods of use thereof” (Dana-Farber Cancer Institute, Inc., priority 2017, dated 2022).

What was measured:
C2C12 cells = assay: Measurement of cellular respiration (Seahorse), uncoupling bioactivity; format: cell-based; conditions: Mus musculus, Table 5, cyclic head groups, 50 μM compound, maximal increase versus basal oligomycin-treated respiration, means SEM, n=3-6/group, read-out: % stimulation of respiration (baseline = 100%)
Procedure: Oligomycin was purchased from EMD Millipore, and FCCP and rotenone were purchased from Sigma. C2C12 cells were seeded at 35,000 cells/well in an XF24 cell culture microplate (V7-PS, Seahorse Bioscience) and analyzed the following day. On the day of analysis, the cells were washed once with Seahorse respiration buffer (8.3 g/l DMEM, 1.8 g/l NaCl, 1 mM pyruvate, 20 mM glucose, pen/strep), placed in 0.5 ml Seahorse respiration buffer, and incubated in a CO2-free incubator for 1 h. Port injection solutions were prepared as follows (final concentrations in assay in parentheses): 10 μM oligomycin (1 μM final), 500 μM indicated compound (50 μM final), 2 μM FCCP (0.2 μM final), and 30 μM rotenone (3 μM final). The Seahorse program was run as follows: basal measurement, 3 cycles; inject port A (oligomycin), 3 cycles; inject port B (compounds), 8 cycles; inject port C (FCCP), 3 cycles; inject port D (rotenone), 3 cycles. Each cycle consisted of mix 2 min, wait 0 min, and measure 2 min. For data expressed as a percentage of oligomycin-treated basal, the respiration at cycle 6 was normalized to 100%, and the maximum respiration at any time point between cycles 7 and 15 inclusive was used.
Tables 1-4 show uncoupling bioactivity of compounds of the disclosure with different fatty acid side chains. Respiration in C2C12 cells is shown as maximal increases versus basal oligomycin-treated respiration, which is normalized to 100%. Data are shown as means SEM, n=3-6/group.

mPM20D1 = biological target: T1, mPM20D1 (Mus musculus, UniProt Q8C165); assay: PM20D1 hydrolysis assay; format: in vitro ADME, murine; conditions: 10 nmol compound in 100 μl PBS, mPM20D1, 1 h at 37° C., LC-MS; FIG. 2
T1 construct: host or cells: 293T cells (secreted into serum-free conditioned media)
T1 sequence (Q8C165 25-503): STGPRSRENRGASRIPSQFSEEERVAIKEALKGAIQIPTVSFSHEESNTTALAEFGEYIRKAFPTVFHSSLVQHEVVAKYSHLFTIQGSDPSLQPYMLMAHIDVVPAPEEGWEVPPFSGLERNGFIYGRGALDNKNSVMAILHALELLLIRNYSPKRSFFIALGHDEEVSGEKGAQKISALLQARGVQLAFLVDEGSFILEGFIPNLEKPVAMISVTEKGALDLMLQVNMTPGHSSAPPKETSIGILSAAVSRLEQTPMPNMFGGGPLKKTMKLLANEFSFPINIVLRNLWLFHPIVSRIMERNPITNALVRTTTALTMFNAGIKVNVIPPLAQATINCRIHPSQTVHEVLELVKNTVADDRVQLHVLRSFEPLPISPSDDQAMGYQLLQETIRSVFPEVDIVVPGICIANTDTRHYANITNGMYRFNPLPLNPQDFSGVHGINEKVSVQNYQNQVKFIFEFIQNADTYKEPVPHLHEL
Procedure: Three 10 cm plates of 293T cells were transiently transfected with murine PM20D1-6×His-Flag plasmid (Addgene plasmid #84566) using PolyFect according to the manufacturer's instructions. After 48 h, cells were washed twice in PBS and switched to serum free DMEM with penicillin and streptomycin. Serum free conditioned media was collected 24 h later and concentrated ˜10-fold in 30 kDa MWCO filters (EMD Millipore) according to the manufacturer's instructions. The concentrated media was centrifuged to remove debris (600×g, 10 min, 4° C.) and the supernatant containing PM20D1-flag was decanted into a new tube. PM20D1-flag was immunoaffinity purified overnight at 4° C. from the concentrated media using magnetic Flag-M2 beads (Sigma Aldrich). The beads were collected, washed three times in PBS, eluted with 3× Flag peptide ([…] in PBS, Sigma Aldrich), aliquoted, and stored at −80° C.
10 nmol of the indicated compound was incubated in 100 μl PBS (100 VM initial substrate). Reactions were initiated by the addition of PBS or mPM20D1 (5 μl). After 1 h at 37° C., reactions were quenched with […] of a 2:1 v/v mixture of chloroform and methanol with 10 nmol d31-palmitate as an internal standard. The reactions were vortexed and the organic layer was transferred to a sample vial for analysis by LC-MS. For separation of polar metabolites, normal-phase chromatography was performed with a Luna-[…] NH2 column (50 mm×4.60 mm, Phenomenex). Mobile phases were as follows: Buffer A, acetonitrile; Buffer B, 95:5 water/acetonitrile with 0.1% formic acid or 0.2% ammonium hydroxide with 50 mM ammonium acetate for positive and negative ionization mode, respectively. The flow rate for each run started at 0.2 ml/min for 2 min, followed by a gradient starting at 0% B and increasing linearly to 100% B over the course of 15 min with a flow rate of 0.7 ml/min, followed by an isocratic gradient of 100% B for 10 min at 0.7 ml/min before equilibrating for 5 min at 0% B with a flow rate of 0.7 ml/min. MS analysis was performed with an electrospray ionization (ESI) source on an Agilent 6430 QQQ LC-MS/MS. The capillary voltage was set to 3.5 kV, and the fragmentor voltage was set to 100 V. The drying gas temperature was 325° C., the drying gas flow rate was 10 l/min, and the nebulizer pressure was 45 psi. Monitoring of hydrolysis starting materials and products was performed by scanning a mass range of m/z 50-1200. Peaks corresponding to the liberated fatty acids (products) or the intact starting material was integrated.

[1] = Liver microsome stability assay; format: in vitro ADME; conditions: mouse liver microsomes 1 mg/mL, 1 μM compound, NADPH, pH 7.4, 37 C; FIG. 3
Procedure: The compounds were evaluated in a mouse liver microsome assay.
Microsome stability was evaluated by incubating 1 μM test compound with 1 mg/mL hepatic microsomes in 100 mM KPi, pH 7.4 at 37 C with shaking. The reaction was initiated by adding NADPH (1 mM final concentration). Aliquots were removed at 0, 5, 10, 20, 40, and 60 minutes and added to acetonitrile (5× v:v) to stop the reaction and precipitate the protein. NADPH dependence of the reaction was evaluated with -NADPH samples. At the end of the assay, the samples were centrifuged through a Millipore Multiscreen Solvinter 0.45 micron low binding PTFE hydrophilic filter plate and analyzed by LC-MS/MS. Data is log transformed and represented as half-life.

[2] = Plasma concentration after compound administration in DIO mice; format: in vivo; conditions: 10 mg/kg, 1 hour after administration, FIG. 5
Procedure: DIO mice (19 weeks, males, stock #380050) were purchased from The Jackson Laboratory. Prior to compound administration, mice were mock injected with vehicle (18:1:1 v/v/v saline:DMSO:Kolliphor EL) for 4 days. Compounds 33 and 37 were prepared in the same vehicle and administered at 10 mg/kg doses. Plasma concentration was measured 1 hour after compound administration.

DIO mice = assay: Treatment of DIO mice with compound: body weight and food intake; format: in vivo
Procedure: DIO mice (19 weeks, males, stock #380050) were purchased from The Jackson Laboratory. Mice were maintained on a high fat diet for the duration of the experiment (60% fat, Research Diets). Prior to compound administration, mice were mock injected with vehicle (18:1:1 v/v/v saline:DMSO:Kolliphor EL, intraperitoneal) for 4 days. Compound 33 was prepared in the same vehicle and administered at 5 μl/g body weight at the indicated doses. Administration of vehicle of compound occurred once per day. Data shown in FIG. 4A compared changes in body weights of representative mice at day 7 versus initial weight on day 0. Data shown in FIG. 4B represented average food intake per mouse over the 7 day dosing period for each treatment group.

Structure (SMILES) | activity at 50 µM (C2C12 cells) | hydrolysis by PM20D1 (mPM20D1) | microsome stability (in vitro half-life) [1] | pharmacokinetic properties in vivo (plasma concentration) [2] | uncoupling bioactivity in vivo (DIO mice; DIO mice on high fat diet, intraperitoneal, once per day) | average food consumed per mouse per day (DIO mice; DIO mice, different treatment groups, 7 day dosing period, FIG. 4B) | change in body weight from the initial weight (DIO mice; DIO mice, higher doses, once per day, day 7 versus day 0, FIG. 4A)
CCCCC/C=C\C/C=C\CCCCCCCC(=O)N1Cc2ccccc2[C@H]1C(=O)O [Compound 36, (S)-2-((9Z,12Z)-Octadeca-9,12-dienoyl)isoindoline-1-carboxylic acid] | 185 ± 18% | entirely resistant to hydrolysis by PM20D1 | long in vitro half-lives |  |  |  | 
CCCCCCCC/C=C\CCCCCCCC(=O)N1Cc2ccccc2[C@@H]1C(=O)O [Compound 34, (R)-2-Oleoylisoindoline-1-carboxylic acid] | 190 ± 12% | entirely resistant to hydrolysis by PM20D1 | long in vitro half-lives |  |  |  | 
CCCCC/C=C\C/C=C\CCCCCCCC(=O)N1Cc2ccccc2[C@@H]1C(=O)O [Compound 37, (R)-2-((9Z,12Z)-Octadeca-9,12-dienoyl)isoindoline-1-carboxylic acid] | 190 ± 12% | entirely resistant to hydrolysis by PM20D1 | long in vitro half-lives | augmented pharmacokinetic properties in vivo |  |  | 
CCCCCCCC/C=C\CCCCCCCC(=O)N1Cc2ccccc2[C@H]1C(=O)O [Compound 33, (S)-2-Oleoylisoindoline-1-carboxylic acid] | 240 ± 24% | entirely resistant to hydrolysis by PM20D1 | long in vitro half-lives | augmented pharmacokinetic properties in vivo | possesses uncoupling bioactivity in vivo | consumed the same amount of food per mouse per day | statistically significant weight loss over time
